Measurements taken from patent US20230312582A1, “Salts Of Nitrogen-Containing Heterocyclic Compound, And Solid Forms Of Salts, Pharmaceutical Composition And Use Thereof” (Wuhan Humanwell Innovative Drug Research And Development …, priority 2020, published 2023).
Like-named read-outs stand apart in the source and are kept apart here.

What was measured:
[1] = molecular target: ATX enzymatic activity in human plasma (Homo sapiens (Human), UniProt Q13822); assay: biochemical
Description: Whole blood from healthy volunteers was collected and anticoagulated with heparin. The blood collection tubes were centrifuged at 3000 rpm for 10 min, and plasma was taken and stored at −80° C. for later use.
The compounds were serially diluted with DMSO according to the standard concentration requirements, and then 3 μL of the compound was taken and added to a 96-well plate. 147 μL of PBS was added to each well containing 3 μL of the compound, and the mixed solution was mixed well, and then 50 μL of the mixed solution was taken out and added to a new 96-well plate. The human plasma was taken out of −80° C. refrigerator and thawed by rapid shaking in a 37° C. water bath, and 50 μL of human plasma was added to a 96-well plate containing 50 μL of diluted compounds (the final system was 1% DMSO). […]
After the incubation, the blank group was thawed on ice and transferred to the incubation plate. […] The peak areas of LPA18:2 and internal standard LPA17:0 were detected by LC-MSMS mass spectrometry.
The peak area ratio of LPA18:2 to internal standard LPA17:0 was calculated, and the generation inhibition rate of LPA18:2 was calculated according to the following formula: […]
According to the inhibition rate of different concentrations of the compound, the IC50 values of the compound were calculated for inhibition of ATX enzymatic activity in human plasma.

hERG channel [2] = molecular target: T1, hERG channel (Homo sapiens (Human), UniProt Q12809); settings: hERG IC50 in μM divided by ATX IC50 in nM as printed
T1 sequence (Q12809 whole entry): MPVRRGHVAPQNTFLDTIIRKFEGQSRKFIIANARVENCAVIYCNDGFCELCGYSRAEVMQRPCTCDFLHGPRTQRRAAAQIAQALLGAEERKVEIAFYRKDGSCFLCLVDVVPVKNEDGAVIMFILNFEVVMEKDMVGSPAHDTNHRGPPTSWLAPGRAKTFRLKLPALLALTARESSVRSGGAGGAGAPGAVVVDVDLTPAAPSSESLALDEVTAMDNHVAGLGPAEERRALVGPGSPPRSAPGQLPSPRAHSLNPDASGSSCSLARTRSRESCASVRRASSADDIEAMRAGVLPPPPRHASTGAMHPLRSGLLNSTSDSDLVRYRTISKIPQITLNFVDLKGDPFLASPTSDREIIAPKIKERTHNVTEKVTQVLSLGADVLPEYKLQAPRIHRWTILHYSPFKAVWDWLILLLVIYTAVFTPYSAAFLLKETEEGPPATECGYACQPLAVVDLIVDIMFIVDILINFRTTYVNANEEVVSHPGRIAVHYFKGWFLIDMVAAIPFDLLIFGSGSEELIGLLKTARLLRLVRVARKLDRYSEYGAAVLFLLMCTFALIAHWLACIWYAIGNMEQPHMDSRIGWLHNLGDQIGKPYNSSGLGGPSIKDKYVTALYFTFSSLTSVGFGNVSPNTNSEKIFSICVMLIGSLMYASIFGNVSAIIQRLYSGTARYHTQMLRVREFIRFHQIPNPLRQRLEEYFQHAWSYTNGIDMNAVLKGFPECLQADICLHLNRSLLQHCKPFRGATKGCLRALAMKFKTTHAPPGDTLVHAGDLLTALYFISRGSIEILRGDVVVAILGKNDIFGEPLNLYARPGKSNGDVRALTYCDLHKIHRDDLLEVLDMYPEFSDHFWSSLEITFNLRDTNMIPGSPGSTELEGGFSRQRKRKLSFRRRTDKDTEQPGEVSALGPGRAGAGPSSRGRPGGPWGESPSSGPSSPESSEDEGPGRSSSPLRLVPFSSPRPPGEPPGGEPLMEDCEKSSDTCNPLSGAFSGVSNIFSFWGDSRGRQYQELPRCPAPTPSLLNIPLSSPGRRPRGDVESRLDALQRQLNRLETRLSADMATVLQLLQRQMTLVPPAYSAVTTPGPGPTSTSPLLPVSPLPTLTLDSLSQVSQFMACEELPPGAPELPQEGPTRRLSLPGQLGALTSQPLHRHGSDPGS
Description: (§2) Inhibitory effect of the compound on hERG was detected using automated electrophysiological patch clamp QPatch. The cells used in this assay were CHO cell lines (supplied by Sophion Bioscience, Denmark) transfected with hERG cDNA and stably expressing hERG channel at cell passage number of P24. The cells were cultured in a medium containing the following components (all purchased from Invitrogen): ham's F12 medium, 10% (v/v) inactivated fetal bovine serum, 100 μg/mL hygromycin B and 100 μg/mL Geneticin. CHO hERG cells were grown in a culture dish containing the above culture solution and cultured in an incubator containing 5% CO2 at 37° C.
(§3) Extracellular buffer (2 mM CaCl2, 1 mM MgCl2, 4 mM KCl, 145 mM NaCl, 10 mM Glucose, 10 mM HEPES, pH: about 7.4, osmotic pressure: about 305 mOsm) and intracellular buffer (5.374 mM CaCl2, 1.75 mM MgCl2, 120 mM KCl, 10 mM HEPES, 5 mM EGTA, 4 mM Na-ATP, pH: about 7.25, osmotic pressure: about 295 mOsm) were prepared. […]
(§4) The assay data were analyzed by Qpatch analysis software supplied by Sophion, Excel, Graphpad Prism and the like.

[3] = Thermodynamic solubility assay; format: physicochemical; settings: thermodynamic from solid
Description: The compounds were weighed out accurately, added to the prepared phosphate buffered saline at pH 7.4, FeSSIF solution at pH 5.8 and FaSSGF solution at pH 1.6 to prepare a solution at a concentration of 4 mg/mL, and the prepared solution was shaken at 1000 rpm for 1 h, and then incubated overnight at room temperature. The incubated solution was centrifuged at 12000 rpm for 10 min to remove undissolved particles, and the supernatant was transferred to a new centrifuge tube. After the supernatant was diluted properly, the supernatant was added with an acetonitrile solution containing an internal standard, and quantified by adopting a standard curve prepared by the same matrix.

[4] = Stability assay of human liver microsome; format: in vitro ADME; settings: human liver microsomes
Description: The stability of human liver microsome was detected by in vitro co-incubation of compounds with human liver microsomes. Test compounds were first prepared as 10 mM stock solutions in DMSO solvent, followed by dilution of the compounds to 0.5 mM using acetonitrile. […] The deep-well plate was taken, […] was added to each well, then 15 μL of pre-warmed 6 mM NADPH solution was added to the plate to start the reaction, and the plate was incubated at 37° C. […] The supernatant was taken after centrifugation, and added with purified water at a ratio of 1:1 for LC-MS/MS detection to obtain the ratio of peak area of compound to peak area of internal standard at each time point. […] T1/2 was calculated using Excel.

hERG channel [5] = molecular target: T1, hERG channel; assay: cell-based
Description: as §2, §3, §4

Autotaxin enzyme = Autotaxin enzyme (Homo sapiens (Human), UniProt Q13822); settings: read-out: IC50 against ATX enzymatic activity; Autotaxin Inhibitor Screening Assay Kit, 37° C., 30 min, OD405
Description: The inhibitory activity of the compound against the Autotaxin enzyme was detected using the Autotaxin Inhibitor Screening Assay Kit (Cayman, 700580). The compound to be tested was first prepared into 10 mM stock solution in DMSO solvent, and then serially diluted into 8 concentrations of compound with DMSO. Subsequently, 8 concentrations of compound were diluted to 19× compound working solution (with DMSO content of 1.9%) with an Autotaxin Assay buffer (1×) provided in the kit. Autotaxin Assay Reagent (10×) was taken out and diluted 10-fold with Autotaxin Assay Buffer (1×). The Autotaxin Substrate was taken out, and added with 1.2 mL of Autotaxin Assay Buffer (1×) for dissolving. The mixture was mixed well and then let stand at room temperature. In a 96-well plate, 150 μL of Autotaxin Assay Buffer (1×), 10 μL of diluted 19× compound working solution, 10 μL of Autotaxin Assay Reagent (1×), 20 μL of dissolved Autotaxin Substrate were added into wells at each concentration, and then the mixture was mixed well, incubated at 37° C. on a constant-temperature shaking shaker, and incubated in the dark for 30 min.

[6] = test system: Bleomycin-induced IPF model; assay: Bleomycin-induced IPF model in rats; format: in vivo; settings: 30 mg/kg oral twice a day, 21 days
Description: The bleomycin-induced IPF model (idiopathic pulmonary fibrosis model) was performed at a dose of 5 U/kg using male BN rats weighing 180-240 g. […] The oral intragastric administration was performed twice a day on the second day after the modeling. The administration group was given a dose of 30 mg/kg at one time, and the vehicle control group was given blank vehicle for 21 consecutive days. During dosing, body weights were weighed every three days. On the 21st day of administration, bronchoalveolar lavage was performed 2 h after the first administration, the inflammatory cells in the lavage fluid were counted, and the relevant biomarkers in the lavage fluid supernatant were detected; after lavage, the left lung of the rat was harvested for fixation, and Masson's trichrome staining was used for pathological scoring of fibrosis and the remaining lung lobes were cryopreserved. The bronchoalveolar lavage fluid supernatant and freshly cryopreserved lung tissue of compound 3 group were taken, and the TGF-β1 protein content and total protein amount were detected by ELISA method, and the amount of TGF-β1 per mg of total protein was calculated.

[7] = In vivo pharmacokinetic assay in mice; settings: male, ICR, mouse, plasma
Description: (§1) In vivo pharmacokinetic assay in rats was performed, wherein the used rats were 6 male SD rats weighing 180-240 g and fasted overnight. […] Blood samples were centrifuged at 8000 rpm for 6 min at 4° C., and plasma was collected and stored at −20° C. The plasma at each time point was taken and added with 3-5 times of acetonitrile solution containing the internal standard for mixing, and the mixed solution was subjected to vortex mixing for 1 min, and centrifuging at 4° C. for 10 min at 13000 rpm. The supernatant was taken and added with 3 times of water for mixing. A proper amount of the mixed solution was taken for LC-MS/MS analysis. The major pharmacokinetic parameters were analyzed using WinNonlin 7.0 software and a non-compartmental model.
In vivo pharmacokinetic assay in mice was performed, wherein the used mice were 18 male ICR mice weighing 20-25 g and fasted overnight. […] The rest of the procedure was performed in the same manner as in the pharmacokinetic assay in rats.

[8] = In vivo pharmacokinetic assay in rats
Description: as §1

[9] = oral intragastric administration 10 mg/kg
[10] = male, SD, rat, plasma, intravenous injection 1 mg/kg
[11] = male, SD, rat, plasma, oral intragastric administration 10 mg/kg

Which IC50 [1] does the source give for `C[C@H](Cc1cnn[nH]1)OCC(=O)N1Cc2cnc(NC3Cc4ccccc4C3)nc2C1` [Compound of formula (I), (R)-2-((1-(1H-1,2,3-triazol-5-yl)propan-2-yl)oxy)-1-(2-((2,3-dihydro-1H-inden-2-yl)amino)-5,7-dihydro-6H-pyrrolo[3,4-d]pyrimidin-6-yl)ethan-1-one] here?
Its IC50 is 4.7 nM.

What about the “hERG IC50/ATX IC50” value (hERG channel [2]) of the same compound?
The value was 9.48/1.59 = 6.0.

And the solubility ([3]; FaSSGF solution, fassgf or other biorelevant, heading: Solubility FaSSGF, FaSSGF, pH 1.6, room temperature overnight)?
The solubility was 1.04 mg/mL.

And the solubility ([3]; FeSSIF solution, FeSSIF, pH 5.8, room temperature overnight, read-out: Solubility FeSSIF (pH 5.8))?
The solubility was 260 mg/mL.

What about the solubility ([3]; phosphate buffered saline, aqueous buffer, PBS, pH 7.4, room temperature overnight, read-out: Solubility PBS (pH 7.4)) of the same compound?
Its solubility is 107 mg/mL.

What about the “T1/2 of the liver microsome stability relative to the control compound” value [4] of the same compound?
Its value is “more than 2 times”.

And the “Remaining percentage of compound after 30 min of incubation (%)” value ([4]; NADPH, 37° C.)?
Its value is 63.7%.

What about the half-life at 1.5 μM ([4]; NADPH, 37° C.) of the same compound?
The half-life at 1.5 μM was 53.6 min.

And the IC50 (hERG channel [5])?
The IC50 was 9480 nM.

What about the IC50 (Autotaxin enzyme) of the same compound?
Its IC50 is 1.59 nM.

And the “content of TGF-β1 in freshly cryopreserved lung tissue” value ([6]; ELISA, FIG. 44)?
Its value is “significantly lower than that of the vehicle control group”.

What about the “content of TGF-β1 in the bronchoalveolar lavage fluid supernatant” value ([6]; ELISA, FIG. 44) of the same compound?
Its value is “significantly lower than that of the vehicle control group”.

And the “weight loss of the animals” value ([6]; FIG. 43)?
Its value is “significantly less than that of the control compound group”.

And the AUC(0-t) ([7]; intravenous injection 1 mg/kg)?
Its AUC(0-t) is 626 ng·h/mL.

And the clearance ([7]; intravenous injection 1 mg/kg)?
The clearance was 26.7 mL/min/kg.

What about the half-life ([7]; intravenous injection 1 mg/kg) of the same compound?
Its half-life is 22.8 min.

What about the Vd ([7]; intravenous injection 1 mg/kg, read-out: Vz) of the same compound?
The Vd was 0.88 L/kg.

And the AUC(0-t) [7, 9]?
The AUC(0-t) was 6370 ng·h/mL.

And the Cmax [7, 9]?
The Cmax was 6360 ng/mL.

What about the Tmax [7, 9] of the same compound?
The Tmax was 15 min.

What about the half-life [7, 9] of the same compound?
The half-life was 52.2 min.

What about the “clearance (CL) in rats relative to that of the control compound” value [8] of the same compound?
The value was “about ⅙”.

What about the AUC(0-t) [8, 10] of the same compound?
Its AUC(0-t) is 3650 ng·h/mL.

What about the clearance [8, 10] of the same compound?
Its clearance is 4.67 mL/min/kg.

And the half-life [8, 10]?
Its half-life is 30 min.

What about the Vd ([8]; male, SD, rat, plasma, intravenous injection 1 mg/kg, read-out: Vz) of the same compound?
Its Vd is 0.21 L/kg.

And the AUC(0-t) [8, 11]?
Its AUC(0-t) is 20700 ng·h/mL.

And the Cmax [8, 11]?
Its Cmax is 15800 ng/mL.

What about the Tmax [8, 11] of the same compound?
The Tmax was 19.8 min.

What about the half-life [8, 11] of the same compound?
Its half-life is 154 min.

What about the “AUC0-t of oral administration relative to the control compound” value ([8]; oral) of the same compound?
Its value is 4.2 times.

What about the “Cmax of oral administration relative to the control compound” value ([8]; oral) of the same compound?
The value was 6.1 times.
